{"source": "patent US20240059652A1", "about": "“AMORPHOUS MELANOCORTIN RECEPTOR AGONIST AND METHOD FOR PREPARING SAME” (LG CHEM, LTD., priority 2020, published 2024)", "type_in_all_cases": "physicochemical", "key": {"[1]": {"experiment": "vapour stress experiment (stability of the amorphous compound under solvent vapours, XRD pattern analysed)", "conditions": "5-7 days; for Result / XRD: vapour stress", "description": "(§1) The following experiments were performed to evaluate the stability of the amorphous compound under various solvent vapours and controlled humidity conditions.\nA vapour stress experiment was performed by placing about 25 mg of the amorphous compound of Example 1 into an unsealed vial, placing the vial in a large sealed container containing 1 mL of the selected solvent, and after 5-7 days, analyzing the XRD pattern of the sample.\n(§2) The vapour stress and humidity stress experimental methods are methods used as methods for generating stable solvates or hydrates because, when a substance is exposed to vapours, a solid is plasticized, and molecular mobility is […]. However, for the amorphous compound of Example 1, the amorphous compound was maintained under various conditions according to the above experimental methods. Thus, it was confirmed that the amorphous compound was stable under the corresponding conditions."}, "[2]": {"experiment": "humidity stress experiment (stability of the amorphous compound in relative humidity chambers, XRD pattern analysed)", "conditions": "5-7 days", "description": "as §1\nIn addition, a humidity stress experiment was performed by placing about 25 mg of the amorphous compound of Example 1 in individual vials, storing the vials in an unsealed state in various relative humidity chambers (23% RH, 59% RH, 7% RH, 98% RH, 40° C./75% RH) for 5-7 days, and analyzing the XRD pattern.\nas §2"}, "[3]": {"experiment": "humidity stress experiment (stability of the amorphous compound in relative humidity chambers, XRD pattern analysed)", "conditions": "75% RH stress, 5-7 days"}}}
{"molecule": "CC(C)C(=O)N([C@H]1C[C@@H](C(=O)N2CCOCC2)N(C(=O)[C@@H]2CN(C(C)(C)C)C[C@H]2c2ccc(Cl)cc2)C1)[C@H]1CC[C@@H](C)CC1", "note": "[Example 1, N-((3S,5S)-1-((3S,4R)-1-(tert-butyl)-4-(4-chlorophenyl)pyrrolidine-3-carbonyl)-5-(morpholine-4-carbonyl)pyrrolidin-3-yl)-N-((1s,4R)-4-methylcyclohexyl)isobutyramide]", "values": [{"measurement": "Result", "setting": "[1]; 2-Me-THF", "value": "Solid"}, {"measurement": "XRD", "setting": "[1]; 2-Me-THF", "value": "Amorphous"}, {"measurement": "Result", "setting": "[1]; ACS", "value": "Solid"}, {"measurement": "XRD", "setting": "[1]; ACS", "value": "Amorphous"}, {"measurement": "Result", "setting": "[1]; Acetone", "value": "Solid"}, {"measurement": "XRD", "setting": "[1]; Acetone", "value": "Amorphous"}, {"measurement": "Result", "setting": "[1]; Benzyl alcohol", "value": "Solid"}, {"measurement": "XRD", "setting": "[1]; Benzyl alcohol", "value": "Amorphous"}, {"measurement": "Result", "setting": "[1]; Chlorobenzene", "value": "Solid"}, {"measurement": "XRD", "setting": "[1]; Chlorobenzene", "value": "Amorphous"}, {"measurement": "Result", "setting": "[1]; Chloroform", "value": "Solid"}, {"measurement": "XRD", "setting": "[1]; Chloroform", "value": "Amorphous"}, {"measurement": "Result", "setting": "[1]; DCM", "value": "Solid"}, {"measurement": "XRD", "setting": "[1]; DCM", "value": "Amorphous"}, {"measurement": "Result", "setting": "[1]; DME", "value": "Solid"}, {"measurement": "XRD", "setting": "[1]; DME", "value": "Amorphous"}, {"measurement": "Result", "setting": "[1]; DMSO", "value": "Solid"}, {"measurement": "XRD", "setting": "[1]; DMSO", "value": "Amorphous"}, {"measurement": "Result", "setting": "[1]; Ethanol", "value": "Solid"}, {"measurement": "XRD", "setting": "[1]; Ethanol", "value": "Amorphous"}, {"measurement": "Result", "setting": "[1]; Formamide", "value": "Solid"}, {"measurement": "XRD", "setting": "[1]; Formamide", "value": "Amorphous"}, {"measurement": "Result", "setting": "[1]; HFIPA", "value": "Solid"}, {"measurement": "XRD", "setting": "[1]; HFIPA", "value": "Amorphous"}, {"measurement": "Result", "setting": "[1]; Heptane", "value": "Solid"}, {"measurement": "XRD", "setting": "[1]; Heptane", "value": "Amorphous"}, {"measurement": "Result", "setting": "[1]; IPA", "value": "Solid"}, {"measurement": "XRD", "setting": "[1]; IPA", "value": "Amorphous"}, {"measurement": "Result", "setting": "[1]; MEK", "value": "Solid"}, {"measurement": "XRD", "setting": "[1]; MEK", "value": "Amorphous"}, {"measurement": "Result", "setting": "[1]; MeOH", "value": "Solid"}, {"measurement": "XRD", "setting": "[1]; MeOH", "value": "Amorphous"}, {"measurement": "Result", "setting": "[1]; NMP", "value": "Solid"}, {"measurement": "XRD", "setting": "[1]; NMP", "value": "Amorphous"}, {"measurement": "Result", "setting": "[1]; Nitromethane", "value": "Solid"}, {"measurement": "XRD", "setting": "[1]; Nitromethane", "value": "Amorphous"}, {"measurement": "Result", "setting": "[1]; Pyridine", "value": "Solid"}, {"measurement": "XRD", "setting": "[1]; Pyridine", "value": "Amorphous"}, {"measurement": "Result", "setting": "[1]; THE", "value": "Solid"}, {"measurement": "XRD", "setting": "[1]; THE", "value": "Amorphous"}, {"measurement": "Result", "setting": "[1]; Water", "value": "Solid"}, {"measurement": "XRD", "setting": "[1]; Water", "value": "Amorphous"}, {"measurement": "stability of the amorphous compound under vapour stress conditions", "setting": "[1]; various solvent vapours", "value": "stable"}, {"measurement": "Result", "setting": "[2]; 23% RH stress", "value": "Solid"}, {"measurement": "XRD", "setting": "[2]; 23% RH stress", "value": "Amorphous"}, {"measurement": "Result", "setting": "[2]; 40° C./75% RH stress", "value": "Solid"}, {"measurement": "XRD", "setting": "[2]; 40° C./75% RH stress", "value": "Amorphous"}, {"measurement": "Result", "setting": "[2]; 59% RH stress", "value": "Solid"}, {"measurement": "XRD", "setting": "[2]; 59% RH stress", "value": "Amorphous"}, {"measurement": "Result", "setting": "[2]; 75% RH stress", "value": "Solid"}, {"measurement": "Result", "setting": "[2]; 98% RH stress", "value": "Solid"}, {"measurement": "XRD", "setting": "[2]; 98% RH stress", "value": "Amorphous"}, {"measurement": "stability of the amorphous compound under humidity stress conditions", "setting": "[2]; controlled humidity conditions", "value": "stable"}, {"measurement": "XRD", "setting": "[3]", "value": "Amorphous"}]}
